pEC50, pIC50: −log10 of the molar value. Where two headings read alike, the source gives them in different places.
Columns and labels:
PRC2 containing wt EZH2 = PRC2 containing wt EZH2 (Homo sapiens (Human), UniProt Q15910); assay: EZH2 biochemical assay (IC50), 3H-SAM incorporation into biotinylated H3 peptide
Summary of the method: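 The PRC2 pentamer with wt EZH2 (30 pM) was pre-incubated for 3-5 h with 450 nM SAM plus 450 nM ³H-SAM, 2 µM H3K27me3 activating peptide and compound (0.8% DMSO) in Tris at pH 8.5. Biotinylated H3K27me1 peptide was added and the reaction ran 18-22 h at RT. Incorporated ³H was captured on streptavidin plates, and IC50 was taken from a four-parameter fit.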

[1] = system: H3K27me3 mark in HeLa cells (EZH2); assay: H3K27me3 Alpha Hela Assay (AlphaLISA); assay type: cell-based; conditions: HeLa cells, 72 hrs, read-out: EZH2 Cell H3K27me3 Alpha HeLa (EC50 K27me3)
Summary of the method: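 HeLa cells (1,000/well) treated with ten 3-fold compound doses for 72 h at 37 °C; lysates extracted and H3K27me3 detected by AlphaLISA with anti-K27me3 acceptor beads, biotinylated anti-H3 (3 nM) and streptavidin donor beads. EC50 from DMSO-normalized dose-response curves; duplicate plate assessed viability.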

[2] = 30 pM PRC2 containing wt EZH2; 3-5 h pre-incubation; read-out: EZH2 (IC50)
[3] = EZH2 (IC50), 30 pM PRC2 containing wt EZH2; 3-5 h pre-incubation

Chain of PRC2 containing wt EZH2 (Q15910 whole entry): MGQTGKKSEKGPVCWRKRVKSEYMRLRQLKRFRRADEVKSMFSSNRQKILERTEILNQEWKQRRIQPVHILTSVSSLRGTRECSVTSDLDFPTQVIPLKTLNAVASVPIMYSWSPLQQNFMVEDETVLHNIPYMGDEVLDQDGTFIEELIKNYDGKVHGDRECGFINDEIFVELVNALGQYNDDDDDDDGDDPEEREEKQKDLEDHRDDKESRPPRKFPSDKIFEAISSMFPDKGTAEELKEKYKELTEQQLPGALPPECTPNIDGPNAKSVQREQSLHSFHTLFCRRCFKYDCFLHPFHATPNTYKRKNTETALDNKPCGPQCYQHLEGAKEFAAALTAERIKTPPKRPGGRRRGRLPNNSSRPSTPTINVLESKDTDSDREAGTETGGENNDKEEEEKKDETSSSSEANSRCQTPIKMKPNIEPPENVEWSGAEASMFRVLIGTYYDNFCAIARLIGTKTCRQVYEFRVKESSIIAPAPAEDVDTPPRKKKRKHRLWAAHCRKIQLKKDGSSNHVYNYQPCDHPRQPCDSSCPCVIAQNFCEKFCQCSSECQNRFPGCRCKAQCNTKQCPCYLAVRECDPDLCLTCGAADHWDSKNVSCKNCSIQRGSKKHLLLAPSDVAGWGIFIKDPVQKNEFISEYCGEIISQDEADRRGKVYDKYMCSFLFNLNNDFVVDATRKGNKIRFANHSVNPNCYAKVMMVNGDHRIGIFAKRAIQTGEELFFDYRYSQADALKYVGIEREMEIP
Chain of PRC2 containing wt EZH2 (O75530 whole entry partner): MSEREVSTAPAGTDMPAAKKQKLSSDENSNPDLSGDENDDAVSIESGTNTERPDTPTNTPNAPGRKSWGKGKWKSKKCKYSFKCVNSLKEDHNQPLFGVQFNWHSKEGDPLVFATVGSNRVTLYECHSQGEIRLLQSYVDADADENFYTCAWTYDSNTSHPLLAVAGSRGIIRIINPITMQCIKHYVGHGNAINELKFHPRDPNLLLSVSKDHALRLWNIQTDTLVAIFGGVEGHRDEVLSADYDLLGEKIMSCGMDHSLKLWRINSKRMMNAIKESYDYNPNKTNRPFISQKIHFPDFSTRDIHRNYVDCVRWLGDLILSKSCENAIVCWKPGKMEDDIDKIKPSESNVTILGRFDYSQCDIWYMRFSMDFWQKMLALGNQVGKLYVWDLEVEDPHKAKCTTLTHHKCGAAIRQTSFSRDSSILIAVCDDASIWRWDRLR
Chain of PRC2 containing wt EZH2 (Q15022 whole entry partner): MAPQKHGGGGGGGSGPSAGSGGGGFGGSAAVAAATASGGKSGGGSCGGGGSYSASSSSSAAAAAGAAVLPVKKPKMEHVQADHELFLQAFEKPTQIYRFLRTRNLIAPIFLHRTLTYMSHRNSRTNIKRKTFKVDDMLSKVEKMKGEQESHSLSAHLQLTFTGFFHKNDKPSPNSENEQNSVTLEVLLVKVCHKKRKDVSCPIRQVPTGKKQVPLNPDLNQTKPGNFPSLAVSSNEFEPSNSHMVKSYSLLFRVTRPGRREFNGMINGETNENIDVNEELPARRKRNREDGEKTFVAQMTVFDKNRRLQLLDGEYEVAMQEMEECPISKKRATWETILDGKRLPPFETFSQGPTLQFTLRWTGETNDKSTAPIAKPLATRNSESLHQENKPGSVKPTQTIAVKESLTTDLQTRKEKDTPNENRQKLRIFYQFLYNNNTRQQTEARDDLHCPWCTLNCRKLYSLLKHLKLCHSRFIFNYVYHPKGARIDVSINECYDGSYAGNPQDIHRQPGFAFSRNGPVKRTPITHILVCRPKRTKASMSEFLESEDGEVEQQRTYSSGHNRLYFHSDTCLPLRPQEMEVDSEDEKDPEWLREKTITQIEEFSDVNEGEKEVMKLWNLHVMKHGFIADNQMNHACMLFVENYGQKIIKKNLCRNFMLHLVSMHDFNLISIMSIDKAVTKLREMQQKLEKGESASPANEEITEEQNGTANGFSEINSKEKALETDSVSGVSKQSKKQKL
Chain of PRC2 containing wt EZH2 (Q09028 whole entry partner): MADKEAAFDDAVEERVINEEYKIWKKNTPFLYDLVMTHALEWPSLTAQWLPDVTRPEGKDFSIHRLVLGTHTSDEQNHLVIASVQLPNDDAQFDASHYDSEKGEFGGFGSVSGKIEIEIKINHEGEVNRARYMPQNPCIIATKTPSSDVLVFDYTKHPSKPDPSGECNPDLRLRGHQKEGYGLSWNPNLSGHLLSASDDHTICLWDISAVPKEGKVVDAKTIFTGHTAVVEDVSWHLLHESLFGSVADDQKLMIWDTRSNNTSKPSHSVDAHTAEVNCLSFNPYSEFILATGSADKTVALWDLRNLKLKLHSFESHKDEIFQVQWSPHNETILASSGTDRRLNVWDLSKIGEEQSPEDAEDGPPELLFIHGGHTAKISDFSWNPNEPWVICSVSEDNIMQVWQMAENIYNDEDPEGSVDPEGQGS
Chain of PRC2 containing wt EZH2 (Q6ZN18 whole entry partner): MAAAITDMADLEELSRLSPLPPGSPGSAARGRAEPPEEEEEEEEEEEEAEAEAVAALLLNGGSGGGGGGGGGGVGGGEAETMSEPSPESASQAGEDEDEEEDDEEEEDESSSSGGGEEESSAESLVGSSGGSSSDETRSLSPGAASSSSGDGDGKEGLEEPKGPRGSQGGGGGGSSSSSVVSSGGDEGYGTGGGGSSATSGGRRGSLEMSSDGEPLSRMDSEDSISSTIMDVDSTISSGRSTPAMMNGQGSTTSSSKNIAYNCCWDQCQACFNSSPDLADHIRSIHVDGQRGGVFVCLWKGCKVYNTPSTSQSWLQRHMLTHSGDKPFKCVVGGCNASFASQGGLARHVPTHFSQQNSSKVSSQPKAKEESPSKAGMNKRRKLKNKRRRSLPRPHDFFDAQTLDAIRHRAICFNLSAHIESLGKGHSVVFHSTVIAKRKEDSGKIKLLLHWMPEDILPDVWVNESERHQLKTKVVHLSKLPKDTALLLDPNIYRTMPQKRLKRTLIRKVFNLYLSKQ

Row | Structure (SMILES) | pIC50 (PRC2 containing wt EZH2; [2]) | pEC50 ([1]; Homo sapiens, HeLa, 72 h) | pIC50 (PRC2 containing wt EZH2; read-out: EZH2 (IC50); 30 pM PRC2 containing wt EZH2; 3-5 h pre-incubation) | pEC50 [1] | pIC50 (PRC2 containing wt EZH2; [3])
1 | CSc1cc(C)[nH]c(=O)c1CNC(=O)c1c(C)n([C@H](C)C2CCN(CC(F)(F)F)CC2)c2cccc(C#N)c12 [Example 97, (R)-4-cyano-2-methyl-N-((6-methyl-4-(methylthio)-2-oxo-1,2-dihydropyridin-3-yl)methyl)-1-(1-(1-(2,2,2-trifluoroethyl)piperidin-4-yl)ethyl)-1H-indole-3-carboxamide] | < 8.30 | < 7.00 |  |  | 
2 | CSc1cc(C)[nH]c(=O)c1CNC(=O)c1c(C)n([C@H](C)C2CCC(N3CC[C@H](OC(F)F)C3)CC2)c2ncccc12 (stereo partly drawn) [Example 120, 1-((R)-1-(4-((S)-3-(difluoromethoxy)pyrrolidin-1-yl)cyclohexyl)ethyl)-2-methyl-N-((6-methyl-4-(methylthio)-2-oxo-1,2-dihydropyridin-3-yl)methyl)-1H-pyrrolo[2,3-b]pyridine-3-carboxamide] | > 9.30 | 7.00 to 8.00 |  |  | 
3 | CSc1cc(C)[nH]c(=O)c1CNC(=O)c1c(C)n([C@H](C)C2OCC(N3CCC3(C)C)CO2)c2ccccc12 (single isomer, unassigned) [15 (isomer 2)] |  |  | > 9.30 | < 7.00 | 
4 | CSc1cc(C)[nH]c(=O)c1CNC(=O)c1c(C)n([C@H](C)C2CCN(C3CC3)CC2)c2ncc(F)cc12 [Example 58, (R)-1-(1-(1-cyclopropylpiperidin-4-yl)ethyl)-5-fluoro-2-methyl-N-((6-methyl-4-(methylthio)-2-oxo-1,2-dihydropyridin-3-yl)methyl)-1H-pyrrolo[2,3-b]pyridine-3-carboxamide] |  | > 8.00 |  |  | > 9.30
5 | CSc1cc(C)[nH]c(=O)c1CNC(=O)c1c(C)n([C@H](C)C2CCC(N3CC(OC(F)F)C3)CC2)c2ncc(F)cc12 (stereo partly drawn) [Example 122, 1-((R)-1-(4-(3-(difluoromethoxy)azetidin-1-yl)cyclohexyl)ethyl)-5-fluoro-2-methyl-N-((6-methyl-4-(methylthio)-2-oxo-1,2-dihydropyridin-3-yl)methyl)-1H-pyrrolo[2,3-b]pyridine-3-carboxamide] | > 9.30 | > 8.00 |  |  | 
6 | CSc1cc(C)[nH]c(=O)c1CNC(=O)c1c(C)n([C@H](C)C2CCC(NC3(C)CCOC3)CC2)c2ccccc12 (single isomer, unassigned) [149 (isomer 2)] | > 9.30 |  |  | 7.00 to 8.00 | 
7 | CSc1cc(C)[nH]c(=O)c1CNC(=O)c1c(C)n([C@H](C)C2CCC(N3CC(F)(F)C3)CC2)c2ccccc12 (single isomer, unassigned) [23 (isomer 2)] |  |  |  | > 8.00 | > 9.30
8 | CSc1cc(C)[nH]c(=O)c1CNC(=O)c1c(C)n([C@H](C)C2CCC(N3CCOCC3)CC2)c2ccccc12 (single isomer, unassigned) [75 (isomer 1)] |  | 7.00 to 8.00 |  |  | > 9.30
9 | CSc1cc(C)[nH]c(=O)c1CNC(=O)c1c(C)n([C@H](C)C2CCN(CC(F)(F)F)CC2)c2cccc(C(F)F)c12 [Example 114, (R)-4-(difluoromethyl)-2-methyl-N-((6-methyl-4-(methylthio)-2-oxo-1,2-dihydropyridin-3-yl)methyl)-1-(1-(1-(2,2,2-trifluoroethyl)piperidin-4-yl)ethyl)-1H-indole-3-carboxamide] | < 8.30 | < 7.00 |  |  | 
10 | CSc1cc(C)[nH]c(=O)c1CNC(=O)c1c(C)n([C@H](C)C2CCC(NC3(C(F)(F)F)COC3)CC2)c2ncncc12 (single isomer, unassigned) [164 (isomer 1)] | > 9.30 | > 8.00 |  |  | 
11 | COC[C@@H](C)n1c(C)c(C(=O)NCc2c(SC)cc(C)[nH]c2=O)c2ccccc21 [Example 32, (R)-1-(1-methoxypropan-2-yl)-2-methyl-N-((6-methyl-4-(methylthio)-2-oxo-1,2-dihydropyridin-3-yl)methyl)-1H-indole-3-carboxamide] |  | 7.00 to 8.00 |  |  | > 9.30
12 | CSc1cc(C)[nH]c(=O)c1CNC(=O)c1c(C)n([C@H](C)C2CCC(NC3(CF)COC3)CC2)c2ncccc12 (single isomer, unassigned) [155 (isomer 1)] | > 9.30 | > 8.00 |  |  | 
13 | CCSc1cc(C)[nH]c(=O)c1CNC(=O)c1c(C)n([C@H](C)C2CCN(CC(F)(F)F)CC2)c2ccccc12 [Example 86, (R)-N-((4-(ethylthio)-6-methyl-2-oxo-1,2-dihydropyridin-3-yl)methyl)-2-methyl-1-(1-(1-(2,2,2-trifluoroethyl)piperidin-4-yl)ethyl)-1H-indole-3-carboxamide] |  | 7.00 to 8.00 |  |  | 8.30 to 9.30
14 | CSc1cc(C)[nH]c(=O)c1CNC(=O)c1c(C)n([C@H](C)C2CCC(OC3COC3)CC2)c2ccccc12 (single isomer, unassigned) [137 (isomer 1)] |  | > 8.00 |  |  | > 9.30
15 | CSc1cc(C)[nH]c(=O)c1CNC(=O)c1c(C)n([C@H](C)[C@H]2CC[C@H](NC3(C)COC3)CC2)c2ccccc12 (single isomer, unassigned) [1 (isomer 2)] | > 9.30 |  |  | 7.00 to 8.00 | 
16 | CSc1cc(C)[nH]c(=O)c1CNC(=O)c1c(C)n([C@H](C)C2CCC(N3CC(F)C3)CC2)c2ccccc12 (single isomer, unassigned) [24 (isomer 1)] |  | > 8.00 |  |  | > 9.30
17 | CSc1cc(C)[nH]c(=O)c1CNC(=O)c1c(C)n([C@H](C)C2CCN(CC(F)(F)F)CC2)c2cc(Br)ccc12 [Example 127, (R)-6-bromo-2-methyl-N-((6-methyl-4-(methylthio)-2-oxo-1,2-dihydropyridin-3-yl)methyl)-1-(1-(1-(2,2,2-trifluoroethyl)piperidin-4-yl)ethyl)-1H-indole-3-carboxamide] |  | 7.00 to 8.00 |  |  | > 9.30
18 | CSc1cc(C)[nH]c(=O)c1CNC(=O)c1c(C)n([C@H](C)C2CCC(OC(F)F)CC2)c2ccccc12 (single isomer, unassigned) [60 (isomer 1)] |  | > 8.00 |  |  | > 9.30
19 | CSc1cc(C)[nH]c(=O)c1CNC(=O)c1c(C)n([C@H](C)C2CCC(N3CC(OC(F)F)C3)CC2)c2ncncc12 (stereo partly drawn) [Example 108, 7-((R)-1-(4-(3-(difluoromethoxy)azetidin-1-yl)cyclohexyl)ethyl)-6-methyl-N-((6-methyl-4-(methylthio)-2-oxo-1,2-dihydropyridin-3-yl)methyl)-7H-pyrrolo[2,3-d]pyrimidine-5-carboxamide] | > 9.30 | > 8.00 |  |  | 
20 | CSc1cc(C)[nH]c(=O)c1CNC(=O)c1c(C)n([C@H](C)C2CCC(N3CC(F)C3)CC2)c2ncc(Cl)cc12 (stereo partly drawn) [Example 98, 5-chloro-1-((R)-1-(4-(3-fluoroazetidin-1-yl)cyclohexyl)ethyl)-2-methyl-N-((6-methyl-4-(methylthio)-2-oxo-1,2-dihydropyridin-3-yl)methyl)-1H-pyrrolo[2,3-b]pyridine-3-carboxamide] |  | > 8.00 |  |  | > 9.30
21 | COC1CN(C2CCC([C@@H](C)n3c(C)c(C(=O)NCc4c(SC)cc(C)[nH]c4=O)c4cc(F)cnc43)CC2)C1 (single isomer, unassigned) [94 (isomer 2)] | 8.30 to 9.30 |  |  | < 7.00 | 
22 | CSc1cc(C)[nH]c(=O)c1CNC(=O)c1c(C)n([C@H](C)C2CN(CC(F)(F)F)C2)c2ccccc12 [Example 54, (R)-2-methyl-N-((6-methyl-4-(methylthio)-2-oxo-1,2-dihydropyridin-3-yl)methyl)-1-(1-(1-(2,2,2-trifluoroethyl)azetidin-3-yl)ethyl)-1H-indole-3-carboxamide] |  | 7.00 to 8.00 |  |  | 8.30 to 9.30
